≈ marks a conversion by molar mass, not a printed value. Like-named read-outs stand apart in the source and are kept apart here.
How the values were obtained:
Assay type in all cases: physicochemical
[1] = solubility of the crystal forms in water and organic solvents
[2] = solubilization of Forms A and B in 1% creams; examination for crystals after manufacturing and storage; details: room temperature; estimated
Procedure: a) The solubility of Form A in a cream formulation is estimated to be about 1% at room temperature. In the manufacturing of cream, the drug substance is completely dissolved in the oily phase at 60-75°. To assess whether and after which storage time part of the drug substance dissolved will crystallize from the 1% cream, a series of batches is examined for crystals.
The drug substance used in the batches and preformulations mentioned above contained 100% Form A.
b) To assess whether drug substance containing Form B can be completely dissolved in the manufacturing of cream and to evaluate the long-term crystallization behaviour, several preformulations (cream, 1%) containing 0%, 1%, 5% and 10% Form B relative to the total content of compound of formula I are manufactured and put on stability testing at different temperatures.
(§1) During the preparation of these preformulations, it is observed that the solving speed of crystal Form B in the oily phase of the cream is much slower than that of crystal Form A. Immediately after manufacturing, the forms are investigated and no remaining crystals are observed.
To get information about the long-term crystallization behaviour of these forms, the stability samples are further investigated after 6 weeks, 3, 6 and 9 months storage.

[3] = solubility in the oil phase of cream (oleyl alcohol/miglyol 812 4:6)
[4] = hygroscopicity (uptake determined by thermogravimetry)
Procedure: hygroscopicity (uptake determined by thermogravimetry): 1.49% (1 day, 92% r.h.); 1.78% (1 week, 25° C., 75% r.h.); hygroscopicity(uptake determined by thermogravimetry): 1 day, 92% r.h. and 1 week, 25° C., 75% r.h.: none;

[5] = dissolution in the oil phase in the preparation of a cream; details: for time to dissolve in the oil phase: preparation of a cream
From the text: The availability of well-defined crystalline forms of the compound of formula I is therefore particularly indicated for use in the preparation of galenical forms of the compound where it is indicated to overcome the above disadvantages, such as in the preparation of topical forms, e.g. creams, emulsions and ointments where it is desired to include the compound normally in dissolved state but under carefully controlled conditions. Thus in the preparation of a cream, it has been observed that Form A dissolves in the oil phase in about 10 minutes, whereas for Form B it takes about 6 hours.
as §1

[6] = thermodynamic stability of the crystal forms; details: compared with Form A

## CC[C@@H]1/C=C(\C)C[C@H](C)C[C@H](OC)[C@H]2O[C@@](O)(C(=O)C(=O)N3CCCC[C@H]3C(=O)O[C@H](/C(C)=C/[C@@H]3CC[C@H](Cl)[C@H](OC)C3)[C@H](C)[C@@H](O)CC1=O)[C@H](C)C[C@@H]2OC [Form A, 33-epichloro-33-desoxyascomycin]
[1]; acetone, 25 °C, organic solvent or mixture, at 25° C., read-out: solubility in acetone
  solubility: > 50 mg/mL
[1]; acetonitrile, 25 °C, organic solvent or mixture, at 25° C., read-out: solubility in acetonitrile
  solubility: > 50 mg/mL
[1]; at 5° C.
  solubility in diethylether: > 100 mg/mL
  solubility in diisopropyl ether: > 100 mg/mL
  solubility in ethanol: > 100 mg/mL
  solubility in hexane: < 10 mg/mL
  solubility in methanol: > 100 mg/mL
[1]; at 5° C., result in words
  solubility in water: insoluble
[1]; at 25° C.
  solubility in water: < 1 mg/mL
[1]; ethanol, 25 °C, organic solvent or mixture, at 25° C., read-out: solubility in ethanol
  solubility: > 50 mg/mL
[1]; ethyl acetate, 5 °C, organic solvent or mixture, at 5° C., read-out: solubility in ethyl acetate
  solubility: > 100 mg/mL
[1]; ethyl acetate, 25 °C, organic solvent or mixture, at 25° C., read-out: solubility in ethyl acetate
  solubility: > 50 mg/mL
[1]; isopropanol, 25 °C, organic solvent or mixture, at 25° C., read-out: solubility in isopropanol
  solubility: > 50 mg/mL
[1]; methanol, 25 °C, organic solvent or mixture, at 25° C., read-out: solubility in methanol
  solubility: > 50 mg/mL
[2]
  solubility in a cream formulation: about 1%
[3]
  solubility in the oil phase of cream: 2.49%
[4]; 1 week, 25° C., 75% r.h.
  hygroscopicity (uptake determined by thermogravimetry): 1.78%
[4]; 1 day, 92% r.h.
  hygroscopicity (uptake determined by thermogravimetry): 1.49%
[5]
  time to dissolve in the oil phase: about 10 minutes

## CC[C@@H]1/C=C(\C)C[C@H](C)C[C@H](OC)[C@H]2O[C@@](O)(C(=O)C(=O)N3CCCC[C@H]3C(=O)O[C@H](/C(C)=C/[C@@H]3CC[C@H](Cl)[C@H](OC)C3)[C@H](C)[C@@H](O)CC1=O)[C@H](C)C[C@@H]2OC [Form B, 33-epichloro-33-desoxyascomycin]
[1]; at 5° C.
  solubility in diethylether: 9.3 mg/mL (≈ 11.5 mM)
  solubility in diisopropyl ether: 1.9 mg/mL (≈ 2.34 mM)
  solubility in ethanol: 18.1 mg/mL (≈ 22.3 mM)
  solubility in ethyl acetate: > 50 mg/mL
  solubility in hexane: 0.8 mg/mL (≈ 0.987 mM)
  solubility in methanol: 46.3 mg/mL (≈ 57.1 mM)
[1]; at 25° C.
  solubility in ethanol: 34.4 mg/mL (≈ 42.4 mM)
  solubility in ethyl acetate: > 50 mg/mL
  solubility in methanol: > 50 mg/mL
  solubility in water: 0.4 mg/mL (≈ 0.494 mM)
[1]; diethyl ether, 25 °C, organic solvent or mixture, at 25° C., read-out: solubility in diethyl ether
  solubility: 16.3 mg/mL (≈ 20.1 mM)
[1]; diisopropyl ether, 25 °C, organic solvent or mixture, at 25° C., read-out: solubility in diisopropyl ether
  solubility: 3.1 mg/mL (≈ 3.82 mM)
[1]; hexane, 25 °C, organic solvent or mixture, at 25° C., read-out: solubility in hexane
  solubility: 1.5 mg/mL (≈ 1.85 mM)
[1]; water, 5 °C, water, at 5° C., read-out: solubility in water
  solubility: 0.3 mg/mL (≈ 0.37 mM)
[3]
  solubility in the oil phase of cream: 0.37%
[4]; 1 week, 25° C., 75% r.h., result in words
  hygroscopicity (uptake determined by thermogravimetry): none
[4]; 1 day, 92% r.h., result in words
  hygroscopicity (uptake determined by thermogravimetry): none
[5]; preparation of 1% cream preformulations, compared with Form A
  solving speed in the oily phase of the cream: much slower
[5]
  time to dissolve in the oil phase: about 6 hours
[6]
  thermodynamic stability: thermodynamically a more stable form than Form A
